Reference: PMC6321233, “Cysteines and Disulfide-Bridged Macrocyclic Mimics of Teixobactin Analogues and Their Antibacterial Activity Evaluation against Methicillin-Resistant Staphylococcus Aureus (MRSA)” (Pharmaceutics, 2018)
≈ marks a conversion by molar mass, not a printed value. Where two headings read alike, the source gives them in different places.

Legend:
[1] = tested on: MRSA ATCC 700699; test: MIC, broth microdilution, MRSA ATCC 700699; type: cell-based, Staphylococcus aureus; details: Mueller Hinton broth, 37 °C, 24 h, peptides in DMSO with 0.002% polysorbate 80, 128-0.25 µg/mL two-fold dilutions, lowest concentration with no visible growth, runs in triplicate
Description: (§1) For minimum inhibitory concentration (MIC) assays, all peptides were dissolved in DMSO containing 0.002% polysorbate 80. Bacteria was grown in Mueller Hinton broth (Oxoid) in triplicate. All incubations were at 37 °C. Dilutions were carried out in triplicate, and 100 µL of autoclaved Mueller Hinton broth was added to wells 2–11 in a 96-well plate. 200 µL of the peptide was added to well one at a concentration of 128 µg/mL. 100 µL of peptide in well one was taken up and pipetted into well two. The mixture was then mixed via pipetting before 100 µL was taken up and pipetted into well three. This process was repeated up to well 10. Once the peptide was added to well 10, 100 µL was taken up and then discarded, ensuring that well 11 had no peptide present. Thus, the concentrations (in µg/mL) were: 128, 64, 32, 16, 8, 4, 2, 1, 0.5, 0.25, and 0 (no peptide present). Each well was then inoculated with 100 µL of bacteria that had been diluted to an OD 600 nm of 0.1. This was repeated three times. The 96-well plates were then incubated at 37 °C for 24 h. […]
(§2) Antibacterial activity of the teixobactin analogues was assessed against Methicillin-resistant Staphylococcus aureus (MRSA ATCC 33591, MRSA ATCC […]) and Methicillin-sensitive Staphylococcus aureus. The minimum inhibitory concentration was measured using the broth microdiluation method (see Experimental Section 2.4). […]

[2] = tested on: S. aureus ATCC 29213; test: MIC, broth microdilution, Methicillin-sensitive S. aureus ATCC 29213; type: cell-based, Staphylococcus aureus; details: Mueller Hinton broth, 37 °C, 24 h, peptides in DMSO with 0.002% polysorbate 80, 128-0.25 µg/mL two-fold dilutions, no visible growth, runs in triplicate
Description: as §1, §2

[3] = tested on: MRSA; details: introduction, strain not named; cited from earlier work
Excerpt: Brimble et al. have also reported on the synthesis and antibacterial activity of teixobactin analogues by replacing L-allo-enduracididine with isosteres. Furthermore, teixobactin analogues with lipid tails were reported by Jamieson et al ...

[4] = tested on: MRSA ATCC 33591; details: reference peptides marked with superscript 12 in Table 1; cited from earlier work
Excerpt: MIC: Minimum Inhibitory Concentration in µg/mL; all the MIC runs in triplicate. (-) = Not evaluated. | column: MRSA ATCC 33591

[5] = tested on: MRSA ATCC 700699; details: reference peptide marked with superscript 12 in Table 1; cited from earlier work
Excerpt: MIC: Minimum Inhibitory Concentration in µg/mL; all the MIC runs in triplicate. (-) = Not evaluated. | column: MRSA ATCC 700699

[6] = tested on: S. aureus ATCC 29213; details: reference peptide marked with superscript 12 in Table 1; cited from earlier work
Excerpt: MIC: Minimum Inhibitory Concentration in µg/mL; all the MIC runs in triplicate. (-) = Not evaluated. | column: S. aureus ATCC 29213

Compound | activity against MRSA compared with teixobactin (in words) [3] | MIC: Minimum Inhibitory Concentration, MRSA ATCC 33591 [4] [µg/mL] | also measured
CN[C@H](CC(C)C)C(=O)N[C@H]1C(=O)N[C@@H](CC(N)=O)C(=O)N[C@H]2C(=O)N[C@H]3C(=O)N[C@H](C(=O)N[C@H](C(=O)O)c4cc(O)cc(O)c4-c4cc3ccc4O)[C@H](O)c3ccc(c(Cl)c3)Oc3cc2cc(c3O[C@@H]2O[C@H](CO)[C@@H](O)[C@H](O)[C@H]2O[C@H]2C[C@](C)(N)[C@H](O)[C@H](C)O2)Oc2ccc(cc2Cl)[C@H]1O [Vancomycin] | – | – | MIC: Minimum Inhibitory Concentration, MRSA ATCC 700699 [1]: 2 µg/mL (≈ 1.38 µM); MIC: Minimum Inhibitory Concentration, S. aureus ATCC 29213 [2]: 4 µg/mL (≈ 2.76 µM)
Ile10-teixobactin | to the same extent as teixobactin | – | –
Leu10-teixobactin | to the same extent as teixobactin | 0.25 | MIC: Minimum Inhibitory Concentration, MRSA ATCC 700699 [5]: 0.25 µg/mL; MIC: Minimum Inhibitory Concentration, S. aureus ATCC 29213 [6]: 0.062 µg/mL
Teixobactin | – | 0.25 | –
